Measurements reported in patent US6342522B1, “Microbiocidal compositions” (priority 1998, dated 2002).
“And” between values parts separate entries of the source, which are not always exact repeats. Identical values can stand only once.

What was measured:
Assay in all cases: MIC, two-fold serial dilutions in Malt Agar, synergism by Kull method
Assay type in all cases: cell-based
[1] = test system: Coriolus versicolor
Experimental: (§1) Each test tube was inoculated to make about 5×10^5 fungi per mil. The lowest concentrations of each compound or mixtures to inhibit visible growth (turbidity) at 30° C. for the fungi for 7 days were taken as the minimum inhibitory concentration (MIC). The MIC were taken as end points of activity. End points for the mixtures of compound A (Guanadine component) and Compound B (second Component microbiocide) were then compared with the end points for the guanadine component A alone and compound B alone. Synergism was determined by a commonly used and accepted method described by Kull, F. C.; Eisman, P. C.; Sylwestrowicz, H. D. and Mayer, R. L. in Applied Microbiology 9:538-541 (1961) using the ratio determined by Qa/QA+Qb/QB==Synergy Index (SI) wherein:
(§2) QA=concentration of compound A in parts per million (ppm), acting alone, which produced an end point.
(§3) Qa=concentration of compound A in ppm, in the mixture which produced an end point.
(§4) QB=concentration of compound B in ppm, acting alone which produced an end point.
(§5) Qb=concentration of compound B in ppm, in the mixture which produced an end point.
(§6) When the sum of Qa/QA and Qb/QB is greater than one, antagonism is indicated.
(§7) The MIC values of each compound tested alone (QA or QB) are end-point activities except where the value is expressed as […]. In these cases, the end-point activity was not seen at the highest tested concentration. For purpose of calculation of the synergy index and for operational definition of MIC, the reported value could be an underestimate of the true MIC; thus the true synergy index could be even lower.

[2] = test system: Penicillium sp.
Experimental: as §1, §2, §3, §4, §5, §6, §7

[3] = test system: Alternaria sp
Experimental: as §1, §2, §3, §4, §5, §6, §7

[4] = test system: Diplodia sp.; details: 30° C., 7 days
Experimental: as §1, §2, §3, §4, §5, §6, §7

[5] = test system: Ophiostoma sp.
Experimental: as §1, §2, §3, §4, §5, §6, §7

[6] = test system: Tyromyces palustris; details: 30° C., 7 days
Experimental: as §1, §2, §3, §4, §5, §6, §7

## 3-iodo-2-propynylbutyl carbamate [Iodocarb]
[1]; c versicolor, 30° C., 7 days
  QB, end-point activity (MIC) of compound B acting alone: 16 ppm
[2]; Penicillium sp, 30° C., 7 days
  QB, end-point activity (MIC) of compound B acting alone: 4 ppm

## N=C(N)NCCCCCCCCNCCCCCCCCNC(=N)N [Guazatine, 1,1-iminodi(octamethylene)diguanidine]
[3]; Alternaria sp, 30° C., 7 days
  QA, end-point activity (MIC) of compound A acting alone: 32 ppm
[1]; c versicolor, 30° C., 7 days
  QA, end-point activity (MIC) of compound A acting alone: 32 ppm and 64 ppm
[4]
  QA, end-point activity (MIC) of compound A acting alone: 64 ppm
[5]; Ophiosroma sp, 30° C., 7 days
  QA, end-point activity (MIC) of compound A acting alone: 1 ppm
[2]; Penicillium sp, 30° C., 7 days
  QA, end-point activity (MIC) of compound A acting alone: 128 ppm
[6]; T palustri
  QA, end-point activity (MIC) of compound A acting alone: 128 ppm

## CCCN(CCOc1c(Cl)cc(Cl)cc1Cl)C(=O)n1ccnc1 [Prochloraz, N-propyl-N-(2-(2,4,6-trichlorophenoxy)ethyl)-imidazole-1-carboximide]
[3]; Alternaria, 168 h, read-out: QB, end-point activity (MIC) of compound B acting alone
  MIC: 4 µg/mL
[1]; Trametes versicolor, 168 h, read-out: QB, end-point activity (MIC) of compound B acting alone
  MIC: 4 µg/mL
[5]; 168 h, read-out: QB, end-point activity (MIC) of compound B acting alone
  MIC: 2 µg/mL
[2]; Penicillium, 168 h, read-out: QB, end-point activity (MIC) of compound B acting alone
  MIC: 32 µg/mL
[6]; 168 h, read-out: QB, end-point activity (MIC) of compound B acting alone, T palustri
  MIC: 64 µg/mL
[6]; T palustri
  QB, end-point activity (MIC) of compound B acting alone: 128 ppm
